Test results reported in ChEMBL document CHEMBL3792292, “Development of a potent and selective FLT3 kinase inhibitor by systematic expansion of a non-selective fragment-screening hit” (Bioorg Med Chem Lett, 2016).

Assays:
[1] = tested on: MV4-11; experiment: Growth inhibition of human MV4-11 cells harboring FLT3-ITD after 48 hrs by CCK8 assay; assay type: functional, cell-based; conditions: MV4-11, 48 h
[2] = target: T1, Aurora kinase A (Homo sapiens) (UniProt O14965); experiment: Inhibition of full length human N-terminal GST-tagged Aurora A (1 to 403 residues) expressed in baculovirus expression system using fluorescence labelled kemptide as substrate at 50 times IC50 by electrophoretic mobility shift assay relative to control
T1 sequence (whole entry): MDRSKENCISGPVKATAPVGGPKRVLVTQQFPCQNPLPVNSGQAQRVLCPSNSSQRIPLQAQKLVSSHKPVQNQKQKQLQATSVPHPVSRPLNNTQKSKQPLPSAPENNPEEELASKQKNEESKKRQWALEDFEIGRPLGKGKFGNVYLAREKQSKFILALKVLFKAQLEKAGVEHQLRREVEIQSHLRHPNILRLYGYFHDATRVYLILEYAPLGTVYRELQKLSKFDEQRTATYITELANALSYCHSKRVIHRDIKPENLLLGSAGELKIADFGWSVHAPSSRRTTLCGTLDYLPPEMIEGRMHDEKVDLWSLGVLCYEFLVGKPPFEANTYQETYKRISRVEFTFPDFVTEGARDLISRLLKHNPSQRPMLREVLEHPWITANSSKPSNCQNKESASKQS

[3] = target: T2, Serine/threonine-protein kinase Chk1 (Homo sapiens) (UniProt O14757); experiment: Inhibition of full length human N-terminal GST-tagged CHK1 (1 to 476 residues) expressed in baculovirus expression system using fluorescence labelled CHKtide as substrate at 50 times IC50 by electrophoretic mobility shift assay relative to control
T2 sequence (whole entry): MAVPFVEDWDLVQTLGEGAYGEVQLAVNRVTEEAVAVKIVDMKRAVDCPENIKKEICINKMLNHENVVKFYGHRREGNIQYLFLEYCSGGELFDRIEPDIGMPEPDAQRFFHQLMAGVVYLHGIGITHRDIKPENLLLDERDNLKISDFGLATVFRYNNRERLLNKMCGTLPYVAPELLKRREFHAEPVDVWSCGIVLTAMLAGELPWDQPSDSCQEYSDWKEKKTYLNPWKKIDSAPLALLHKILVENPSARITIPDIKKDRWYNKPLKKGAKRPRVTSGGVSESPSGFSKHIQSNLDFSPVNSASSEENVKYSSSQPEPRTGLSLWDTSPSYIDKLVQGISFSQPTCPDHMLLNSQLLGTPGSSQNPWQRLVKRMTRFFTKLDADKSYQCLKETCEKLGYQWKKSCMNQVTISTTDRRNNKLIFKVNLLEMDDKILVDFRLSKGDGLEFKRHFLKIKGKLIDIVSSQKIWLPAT

[4] = target: Tyrosine-protein kinase ABL1 (Homo sapiens) (UniProt P00519); experiment: Inhibition of full length human N-terminal His-tagged ABL (2 to 1130 residues) expressed in baculovirus expression system using fluorescence labelled ABLtide as substrate at 50 times IC50 by electrophoretic mobility shift assay relative to control
Sequence of Tyrosine-protein kinase ABL1 (Homo sapiens) (P00519 whole entry, the tested form may be a part): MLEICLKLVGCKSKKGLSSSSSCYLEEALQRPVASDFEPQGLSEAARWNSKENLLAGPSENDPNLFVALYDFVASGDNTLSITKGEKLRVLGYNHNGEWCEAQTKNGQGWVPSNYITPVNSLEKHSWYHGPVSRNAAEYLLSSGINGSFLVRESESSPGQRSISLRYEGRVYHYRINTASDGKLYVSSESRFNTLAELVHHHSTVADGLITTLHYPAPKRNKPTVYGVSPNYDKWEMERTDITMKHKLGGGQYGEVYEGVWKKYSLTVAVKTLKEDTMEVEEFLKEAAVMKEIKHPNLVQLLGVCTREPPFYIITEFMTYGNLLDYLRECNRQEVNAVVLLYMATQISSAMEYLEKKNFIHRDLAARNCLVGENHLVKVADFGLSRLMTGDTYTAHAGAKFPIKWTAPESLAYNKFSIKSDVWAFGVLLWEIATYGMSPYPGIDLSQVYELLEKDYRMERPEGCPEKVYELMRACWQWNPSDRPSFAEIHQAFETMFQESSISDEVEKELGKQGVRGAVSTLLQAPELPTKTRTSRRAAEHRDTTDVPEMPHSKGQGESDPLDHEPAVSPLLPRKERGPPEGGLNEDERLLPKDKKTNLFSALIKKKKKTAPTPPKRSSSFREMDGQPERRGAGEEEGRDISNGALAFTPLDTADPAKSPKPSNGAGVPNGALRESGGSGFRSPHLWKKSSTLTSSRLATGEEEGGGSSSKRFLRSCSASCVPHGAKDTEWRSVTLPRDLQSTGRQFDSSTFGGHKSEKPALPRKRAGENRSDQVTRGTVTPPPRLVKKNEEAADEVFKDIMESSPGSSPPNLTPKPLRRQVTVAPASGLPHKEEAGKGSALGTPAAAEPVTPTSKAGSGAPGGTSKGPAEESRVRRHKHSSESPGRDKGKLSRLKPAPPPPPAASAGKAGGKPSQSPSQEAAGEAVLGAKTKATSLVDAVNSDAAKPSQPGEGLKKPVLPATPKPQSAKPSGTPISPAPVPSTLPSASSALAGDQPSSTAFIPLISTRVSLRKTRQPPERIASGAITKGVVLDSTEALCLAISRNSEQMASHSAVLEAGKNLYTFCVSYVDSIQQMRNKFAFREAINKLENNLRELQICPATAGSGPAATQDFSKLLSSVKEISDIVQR

[5] = target: Insulin-like growth factor 1 receptor (Homo sapiens) (UniProt P08069); experiment: Inhibition of human N-terminal GST-tagged IGF1R cytoplasmic domain (959 to 1367 residues) expressed in baculovirus expression system using fluorescence labelled IRS1 as substrate at 50 times IC50 by electrophoretic mobility shift assay relative to control
[6] = Growth inhibition of human WI38 cells after 48 hrs by CCK8 assay; assay type: cell-based; conditions: WI-38, 48 h
[7] = target: Receptor-type tyrosine-protein kinase FLT3 (Homo sapiens) (UniProt P36888); experiment: Inhibition of human N-terminal GST-tagged FLT3 cytoplasmic domain (564 to 993 residues) expressed in baculovirus expression system using fluorescence labelled srctide as substrate at 50 times IC50 by electrophoretic mobility shift assay relative to control
Sequence of Receptor-type tyrosine-protein kinase FLT3 (Homo sapiens) (P36888 whole entry, the tested form may be a part): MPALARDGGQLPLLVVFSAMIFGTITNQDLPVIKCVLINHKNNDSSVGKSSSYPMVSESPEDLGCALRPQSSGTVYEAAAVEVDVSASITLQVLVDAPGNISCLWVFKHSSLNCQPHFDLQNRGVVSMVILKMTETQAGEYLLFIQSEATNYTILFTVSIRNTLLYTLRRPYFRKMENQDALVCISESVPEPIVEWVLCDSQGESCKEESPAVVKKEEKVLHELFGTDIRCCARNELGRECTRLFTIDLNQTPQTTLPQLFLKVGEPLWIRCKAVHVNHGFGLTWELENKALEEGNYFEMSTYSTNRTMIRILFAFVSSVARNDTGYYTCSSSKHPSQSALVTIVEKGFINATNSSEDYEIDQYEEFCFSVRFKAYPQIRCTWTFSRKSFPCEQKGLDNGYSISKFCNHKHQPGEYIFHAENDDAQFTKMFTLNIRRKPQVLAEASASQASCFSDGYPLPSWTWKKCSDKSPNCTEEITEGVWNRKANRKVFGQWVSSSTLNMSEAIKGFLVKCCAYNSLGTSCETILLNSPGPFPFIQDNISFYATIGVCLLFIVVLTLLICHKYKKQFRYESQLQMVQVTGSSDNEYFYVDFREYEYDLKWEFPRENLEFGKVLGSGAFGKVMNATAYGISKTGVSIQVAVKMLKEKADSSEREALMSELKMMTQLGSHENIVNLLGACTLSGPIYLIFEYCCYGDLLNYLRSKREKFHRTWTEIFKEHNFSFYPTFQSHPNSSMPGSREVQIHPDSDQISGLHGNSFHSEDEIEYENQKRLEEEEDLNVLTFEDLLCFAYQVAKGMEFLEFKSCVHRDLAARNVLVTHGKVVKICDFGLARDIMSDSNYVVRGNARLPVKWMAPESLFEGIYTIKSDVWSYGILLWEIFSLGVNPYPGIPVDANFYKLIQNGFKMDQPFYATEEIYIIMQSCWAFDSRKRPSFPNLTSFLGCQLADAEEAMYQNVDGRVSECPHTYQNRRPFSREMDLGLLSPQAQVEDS

[8] = target: T3, Testis-specific serine/threonine-protein kinase 1 (Homo sapiens) (UniProt Q9BXA7); experiment: Inhibition of full length human N-terminal GST-tagged TSSK1 (1 to 367 residues) expressed in baculovirus expression system using fluorescence labelled GS peptide substrate at 50 times IC50 by electrophoretic mobility shift assay relative to control
T3 sequence (whole entry): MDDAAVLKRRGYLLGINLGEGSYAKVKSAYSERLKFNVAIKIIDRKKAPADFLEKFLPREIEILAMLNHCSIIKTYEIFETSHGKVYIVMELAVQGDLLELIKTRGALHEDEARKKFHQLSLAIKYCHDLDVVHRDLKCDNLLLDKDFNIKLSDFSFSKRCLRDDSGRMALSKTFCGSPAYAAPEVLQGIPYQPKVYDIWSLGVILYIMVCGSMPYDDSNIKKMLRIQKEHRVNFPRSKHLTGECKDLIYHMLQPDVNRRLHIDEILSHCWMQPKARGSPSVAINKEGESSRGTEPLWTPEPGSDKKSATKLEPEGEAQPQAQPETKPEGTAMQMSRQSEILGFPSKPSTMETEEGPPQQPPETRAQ

[9] = target: Mitogen-activated protein kinase 1 (Homo sapiens) (UniProt P28482); experiment: Inhibition of full length human N-terminal GST-tagged ERK2 (1 to 360 residues) expressed in Escherichia coli using fluorescence labelled modified Erktide as substrate at 50 times IC50 by electrophoretic mobility shift assay relative to control
Sequence of Mitogen-activated protein kinase 1 (Homo sapiens) (P28482 whole entry, the tested form may be a part): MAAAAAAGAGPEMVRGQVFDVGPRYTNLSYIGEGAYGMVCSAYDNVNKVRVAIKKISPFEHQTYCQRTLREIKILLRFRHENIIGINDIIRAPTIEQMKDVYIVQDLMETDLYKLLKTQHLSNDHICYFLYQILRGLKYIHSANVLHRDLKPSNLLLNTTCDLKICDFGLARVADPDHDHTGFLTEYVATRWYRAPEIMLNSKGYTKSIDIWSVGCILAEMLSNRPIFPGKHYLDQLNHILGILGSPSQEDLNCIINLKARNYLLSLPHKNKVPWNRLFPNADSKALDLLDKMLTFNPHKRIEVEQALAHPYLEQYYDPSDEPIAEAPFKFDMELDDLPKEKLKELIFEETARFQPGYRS

[10] = target: T4, Calcium/calmodulin-dependent protein kinase type IV (Homo sapiens) (UniProt Q16566); experiment: Inhibition of full length human N-terminal GST-tagged CAMK4 (1 to 473 residues) expressed in baculovirus expression system using fluorescence labelled GS peptide as substrate at 50 times IC50 by electrophoretic mobility shift assay relative to control
T4 sequence (whole entry): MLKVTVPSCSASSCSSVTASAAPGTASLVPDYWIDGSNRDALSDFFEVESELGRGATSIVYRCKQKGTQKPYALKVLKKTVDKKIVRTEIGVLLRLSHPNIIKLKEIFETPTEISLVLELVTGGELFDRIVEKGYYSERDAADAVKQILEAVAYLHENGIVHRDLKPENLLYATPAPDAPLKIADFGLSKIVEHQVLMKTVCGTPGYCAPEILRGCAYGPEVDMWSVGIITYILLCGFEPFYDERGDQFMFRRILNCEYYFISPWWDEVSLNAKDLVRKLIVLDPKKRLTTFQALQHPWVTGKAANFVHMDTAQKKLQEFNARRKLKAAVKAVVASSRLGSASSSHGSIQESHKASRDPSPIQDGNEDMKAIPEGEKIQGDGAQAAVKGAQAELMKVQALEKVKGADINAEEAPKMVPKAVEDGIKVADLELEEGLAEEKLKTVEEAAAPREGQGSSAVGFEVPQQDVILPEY

[11] = target: Mitogen-activated protein kinase kinase kinase kinase 4 (Homo sapiens, UniProt O95819); experiment: Inhibition of human N-terminal GST-tagged HGK catalytic domain (1 to 328 residues) expressed in baculovirus expression system using fluorescence labelled moesin-derived peptide substrate at 50 times IC50 by electrophoretic mobility shift assay relative to control
Sequence of Mitogen-activated protein kinase kinase kinase kinase 4 (O95819 2-1239 limits assumed): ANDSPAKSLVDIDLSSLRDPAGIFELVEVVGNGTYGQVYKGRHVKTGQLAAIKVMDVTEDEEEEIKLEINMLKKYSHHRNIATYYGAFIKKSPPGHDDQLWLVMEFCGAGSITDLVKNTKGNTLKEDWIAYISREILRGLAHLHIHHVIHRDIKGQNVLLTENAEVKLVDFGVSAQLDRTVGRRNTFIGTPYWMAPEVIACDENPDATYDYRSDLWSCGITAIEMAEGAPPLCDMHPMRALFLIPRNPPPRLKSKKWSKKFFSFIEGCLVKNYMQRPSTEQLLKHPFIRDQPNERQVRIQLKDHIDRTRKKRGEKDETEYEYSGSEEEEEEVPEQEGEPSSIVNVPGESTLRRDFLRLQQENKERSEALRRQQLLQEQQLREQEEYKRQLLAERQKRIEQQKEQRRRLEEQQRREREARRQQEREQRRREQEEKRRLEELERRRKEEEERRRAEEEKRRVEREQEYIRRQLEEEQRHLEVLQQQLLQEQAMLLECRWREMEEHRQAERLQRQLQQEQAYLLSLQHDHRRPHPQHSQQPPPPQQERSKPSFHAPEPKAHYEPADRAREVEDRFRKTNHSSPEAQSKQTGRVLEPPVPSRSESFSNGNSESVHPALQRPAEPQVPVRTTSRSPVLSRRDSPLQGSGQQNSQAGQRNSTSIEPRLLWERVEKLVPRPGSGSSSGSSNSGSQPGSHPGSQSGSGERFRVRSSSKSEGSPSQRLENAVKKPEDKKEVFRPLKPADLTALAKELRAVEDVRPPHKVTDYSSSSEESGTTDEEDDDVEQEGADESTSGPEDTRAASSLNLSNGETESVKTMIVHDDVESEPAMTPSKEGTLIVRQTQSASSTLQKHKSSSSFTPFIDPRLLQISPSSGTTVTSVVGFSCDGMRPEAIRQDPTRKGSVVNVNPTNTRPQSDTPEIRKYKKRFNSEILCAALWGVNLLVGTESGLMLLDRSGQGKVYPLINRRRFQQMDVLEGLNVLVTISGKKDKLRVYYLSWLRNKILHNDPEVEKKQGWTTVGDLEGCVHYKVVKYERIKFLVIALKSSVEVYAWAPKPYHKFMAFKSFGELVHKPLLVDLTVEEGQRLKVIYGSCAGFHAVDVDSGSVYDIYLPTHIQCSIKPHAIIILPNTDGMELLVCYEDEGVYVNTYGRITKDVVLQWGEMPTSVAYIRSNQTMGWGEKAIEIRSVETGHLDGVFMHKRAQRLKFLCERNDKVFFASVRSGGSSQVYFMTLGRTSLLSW

[12] = target: Mitogen-activated protein kinase 9 (Homo sapiens) (UniProt P45984); experiment: Inhibition of human N-terminal GST-tagged JNK2 catalytic domain (1 to 364 residues) expressed in Escherichia coli using fluorescence labelled modified Erktide as substrate at 50 times IC50 by electrophoretic mobility shift assay relative to control
Sequence of Mitogen-activated protein kinase 9 (Homo sapiens) (P45984 whole entry, looked up, the tested form may be a part): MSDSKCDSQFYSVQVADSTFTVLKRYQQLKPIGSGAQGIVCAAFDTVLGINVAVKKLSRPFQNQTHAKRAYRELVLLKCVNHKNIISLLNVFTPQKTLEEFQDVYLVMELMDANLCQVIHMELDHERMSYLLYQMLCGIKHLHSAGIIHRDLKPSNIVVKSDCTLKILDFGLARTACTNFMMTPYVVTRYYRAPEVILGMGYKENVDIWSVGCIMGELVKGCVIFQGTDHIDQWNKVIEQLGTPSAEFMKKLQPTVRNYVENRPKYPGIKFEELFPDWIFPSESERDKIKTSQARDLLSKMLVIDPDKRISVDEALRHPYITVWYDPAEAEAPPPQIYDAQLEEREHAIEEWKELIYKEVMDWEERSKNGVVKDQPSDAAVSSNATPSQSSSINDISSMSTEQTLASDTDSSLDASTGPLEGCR

Structure (SMILES): O=C(Nc1ccccc1)c1n[nH]c2ccccc12
- IC50 [1]: 7.7 µM
- inhibition [2]: 45.2%
- inhibition [3]: 10.9%
- inhibition [4]: 5.3%
- inhibition [5]: 18.2%
- IC50 [6]: > 10 µM
- inhibition [7]: 96.7%
- inhibition [8]: 12.9%
- inhibition [9]: 7%
- inhibition [10]: 21.2%
- inhibition [11]: 92.5%
- inhibition [12]: 24.5%

Structure (SMILES): O=C(Nc1ccc(C(=O)N2CCN(c3ccccc3)CC2)cc1)c1n[nH]c2ccccc12
- inhibition [2]: 31.3%
- inhibition [3]: 8%
- inhibition [4]: 3.9%
- inhibition [5]: 1.9%
- inhibition [7]: 99.7%
- inhibition [8]: 4.3%
- inhibition [9]: -0.8%
- inhibition [10]: 2.7%
- inhibition [11]: 90.6%
- inhibition [12]: 9.3%

Structure (SMILES): O=C(Nc1ccc(CN2CCN(c3ccccc3)CC2)cc1)c1n[nH]c2ccccc12
- IC50 [1]: 0.164 µM
- inhibition [2]: 6.1%
- inhibition [3]: 1%
- inhibition [4]: 3.4%
- inhibition [5]: 0.5%
- IC50 [6]: > 10 µM
- inhibition [7]: 100%
- inhibition [8]: 1%
- inhibition [9]: -2.1%
- inhibition [10]: 0.8%
- inhibition [11]: 62.8%
- inhibition [12]: -1.1%
